Test results as given in article PMC11944514, “Dengue Virus Inhibitors as Potential Broad-Spectrum Flavivirus Inhibitors” (Pharmaceuticals, 2025).
Entries after “also recorded” stand apart in the source; their conditions may differ.

Key:
KUNV-Nanoluc replicon = type: cell-based
KUNV-Nanoluc = assay: organism not typed; type: cell-based
TBEV-Nanoluc replicon = type: cell-based
Vero E6 cells [1] = assay: WST-1 cell viability assay, Vero E6; type: cell-based, African green monkey; conditions: Vero E6, 48 h of exposure
Protocol: (§1) The cytotoxic effect of all studied compounds was assessed using the WST-1 assay after 48 h of exposure. […] This observation can be explained by the fact that the compound C8 is resazurin, phenoxazine dye, also known as Alamar Blue, which is subject to irreversible metabolic reduction to the resorufin by live mammalian cells. Thus, the cytotoxic effect of this compound cannot be assessed by the WST-1 assay correctly. Therefore, the C8 cytotoxicity was further assessed using the resazurin cell viability assay. This assay allowed us to avoid the interference between the tested compound and dye and obtain more reliable results for colored compounds.
(§2) Vero E6 or U2OS cells were seeded on the 96-well plate at a density of 1 × 10^4 cells/well and were allowed to adhere overnight. Next day, the cells were treated with the studied compounds at concentrations ranging from 1 to 100 μM with a ten-fold dilution step. As a solvent control, 0.01% DMSO (Sigma, St. Louis, MO, USA) was used. After 48 h of exposure, 10 μL of WST-1 (10 mg/mL) cell proliferation reagent (Roche, Cat. No. 11644807001) was added to each well, and plates were incubated at 37 °C, 5% CO2 for 2 h. The optical density was then measured at 450 nm using an Epoch Microplate Spectrophotometer (BioTek Instruments, Inc., Winooski, VT, USA). Four independent experiments were carried out in triplicates.

U2OS cells = assay: WST-1 cell viability assay, U2OS; type: cell-based, human; conditions: 48 h of exposure
Protocol: as §2

ZIKV-Nanoluc replicon = type: cell-based
DENV2-Nanoluc replicon = type: cell-based
TBEV-Nanoluc = assay: microbe, parasite or virus in culture; type: cell-based; conditions: for EC50: Tick-borne encephalitis virus, Vero C1008, read-out: TBEV EC50, μM
[2] = xCELLigence real-time cytotoxicity assay (RTCA), CC50; type: cell-based; conditions: African green monkey, Vero E6 cells, 24 h of exposure
Protocol: As compounds C1, C2, and C3 were relatively toxic (Figure 2A), we determined the selectivity index (SI) of the identified potential broad-spectrum flavivirus inhibitors. As the WST-1 assay tends to underestimate the toxic effect and is unable to detect cytostatic effects, the CC50 of the perspective compounds was measured using a more sensitive xCELLigence real-time cytotoxicity assay (RTCA). […] The full xCELLigence RTCA data are provided in the Supporting Information section (Figures S2 and S3). Thereafter, for each compound, the SI was calculated as a ratio of the CC50 of a compound against its EC50 [36].
Vero E6 cells were seeded on a 16-well E-plate (ACEA Biosciences, Inc., San Diego, CA, USA ) at a density of 5 × 10^3 cells/well and allowed to adhere overnight. On the next day, the studied compounds were added at the final concentrations ranging from 0.078 μM to 5 μM with a two-fold dilution step for compounds C1, C2, and C3, and at the final concentrations ranging from 1.56 μM to 50 μM with a two-fold dilution step for compounds C5 and C6; 0.01% DMSO was used as a solvent control. The cells were incubated for 5 days, and the signals between the electrodes (impedance) were recorded using an RTCA xCELLigence machine (Agilent Technologies, Inc., Santa Clara, CA, USA). […] The CC50 values were calculated using GraphPad Prism 10.0 for Windows, GraphPad Software, v. 10.4.1, Boston, MA, USA, www.graphpad.com (accessed on 16 February 2025).

DENV2-Nanoluc = assay: microbe, parasite or virus in culture; type: cell-based
Vero E6 cells [3] = assay: Resazurin cell viability assay, Vero E6; type: cell-based, African green monkey; conditions: Vero E6, 48 h of exposure
Protocol: as §1
Vero E6 cells were seeded on a 96-well plate at a density of 1 × 10^4 cells/well and were allowed to adhere overnight. On the next day, the medium was replaced with a fresh complete growth medium containing the desired compound at final concentrations ranging from 1 μM to 100 μM with a ten-fold dilution step; 0.05% DMSO was used as a solvent control. […] Thereafter, the fluorescence was measured by a Synergy H1 Hybrid Multi-Mode Microplate Reader (BioTek Instruments, Inc., Winooski, VT, USA) using a 540 nm excitation and 590 nm emission filter. […]

ZIKV-Nanoluc = assay: microbe, parasite or virus in culture; type: cell-based

| SMILES | antiviral effect against KUNV-Nanoluc replicon (KUNV-Nanoluc replicon) | antiviral effect against KUNV-Nanoluc (initial screening) (KUNV-Nanoluc) | antiviral effect against TBEV-Nanoluc replicon (TBEV-Nanoluc replicon) | cytotoxic effect (WST-1 assay) (Vero E6 cells [1]) | cytotoxic effect (WST-1 assay) (U2OS cells) | antiviral effect against ZIKV-Nanoluc replicon (ZIKV-Nanoluc replicon) | antiviral effect against DENV2-Nanoluc replicon (DENV2-Nanoluc replicon) | antiviral effect against TBEV-Nanoluc (initial screening) (TBEV-Nanoluc) | EC50 (TBEV-Nanoluc) [µM] | CC50 at 24 h [2] [µM] | antiviral effect against DENV2-Nanoluc (initial screening) (DENV2-Nanoluc) | cytotoxic effect (resazurin cell viability assay) (Vero E6 cells [3]) | EC50 (KUNV-Nanoluc; Vero C1008, read-out: KUNV EC50, μM) [µM] | EC50 (DENV2-Nanoluc; Dengue virus, DENV2, Vero C1008, read-out: DENV2 EC50, μM) [µM] | antiviral effect against ZIKV-Nanoluc (initial screening) (ZIKV-Nanoluc) | EC50 (ZIKV-Nanoluc; Zika virus, Vero C1008, read-out: ZIKV EC50, μM) [µM] |
| --- | --- | --- | --- | --- | --- | --- | --- | --- | --- | --- | --- | --- | --- | --- | --- | --- |
| Nc1ncnc2c1ncn2C1OC(CO)C(O)C1O (centres unmarked) [Compound C7, 2-(6-amino-9H-purin-9-yl)-5-(hydroxymethyl)oxolane-3,4-diol] | inactive against all studied flavivirus replicons at the maximal non-toxic concentration | slight inhibition effect was observed for compound C7 at the 50 μM concentration | no inhibition of TBEV replication was observed; also recorded: inactive against all studied flavivirus replicons at the maximal non-toxic concentration | no cytotoxic effect at the maximal tested concentration | more toxic for the U2OS cells at the maximum tested concentration than in the Vero E6 cells | inactive against all studied flavivirus replicons at the maximal non-toxic concentration | slight inhibition effect against DENV2-Nanoluc if it was added at 1 h post-transfection; also recorded: inactive against all studied flavivirus replicons at the maximal non-toxic concentration | clear dose-dependent antiviral effect | 8.33 | > 50 |  |  |  |  |  |  |
| O=c1ccc2[n+]([O-])c3ccc([O-])cc3oc-2c1.[Na+] [Compound C8, sodium 3-oxo-3H-phenoxazin-10-ium-7,10-bis(olate)] |  |  |  | inverse dose-dependent effect |  |  |  | partially inhibit viral replication at the minimal tested concentration without an apparent dose-dependent effect |  | > 50 | negligible inhibition effect at the maximum tested concentration; also recorded: no antiviral effect against DENV2-Nanoluc in the tested concentrations range | no cytotoxic effect |  |  |  |  |
| O=[N+]([O-])c1c(Nc2ccccc2O)cc(Cl)c2nonc12 [Compound C5, 2-[(7-chloro-4-nitro-2,1,3-benzoxadiazol-5-yl)amino]phenol] |  | decreased the KUNV-Nanoluc activity only at the maximum tested concentrations |  | moderate cytotoxic effect at 50 μM |  |  |  | clear dose-dependent antiviral effect | 9.88 | 12.8 | apparent dose-dependent antiviral effects |  | 8.9 | 2.91 | at the 50 μM concentration, the virus activity was completely inhibited | 10.4 |
| Nc1nc(N)c2c(Oc3ccc(F)cc3)cccc2n1 [Compound C4, 5-(4-fluorophenoxy)quinazoline-2,4-diamine] |  |  |  |  |  |  |  | partially inhibit viral replication at the minimal tested concentration without an apparent dose-dependent effect |  | > 0.2 | negligible inhibition effect at the maximum tested concentration |  |  |  | some tendency to decrease the ZIKV-Nanoluc activity at a concentration of 2 μM |  |
